# Test results reported in PubChem BioAssay AID268 (DTP/NCI, 2004).
# Where “and” joins values, the source holds several entries; their conditions need not be identical. Equal values may be shown once.
# Test system: CD2F1 mice, P1798 lymphosarcoma sc, tumor weight T/C
# Assay: NCI In Vivo Anticancer Drug Screen. Data for tumor model P1798 Lymphosarcoma (subcutaneous) in CD2F1 (CDF1) mice
# Details: endpoint: mean tumor weight, higher = larger tumour
# Protocol: The antitumor activity of compounds was measured in mice bearing transplantable tumors. Survival or tumor size were measured and the results are expressed as the measurement made in the treated group (T) divided by the measurement made in the vehicle treated control group (C). The tumor model used in this assay is P1798 Lymphosarcoma (subcutaneous) in CD2F1 (CDF1) mice
# [1] = dose: 12.5 mg/kg/injection, schedule: Q01DX010 (sc), vehicle: steriod suspending solution
# [2] = dose: 25.0 mg/kg/injection, schedule: Q01DX010 (sc), vehicle: steriod suspending solution
# [3] = dose: 50.0 mg/kg/injection, schedule: Q01DX010 (sc), vehicle: steriod suspending solution
# [4] = dose: 6.25 mg/kg/injection, schedule: Q01DX010 (ip), vehicle: saline
# [5] = dose: 12.5 mg/kg/injection, schedule: Q01DX010 (ip), vehicle: saline
# [6] = dose: 25.0 mg/kg/injection, schedule: Q01DX010 (ip), vehicle: saline
# [7] = dose: 50.0 mg/kg/injection, schedule: Q01DX010 (ip), vehicle: saline
# [8] = dose: 100.0 mg/kg/injection, schedule: Q01DX010 (ip), vehicle: saline
# [9] = dose: 200.0 mg/kg/injection, schedule: Q01DX010 (ip), vehicle: saline
# [10] = dose: 400.0 mg/kg/injection, schedule: Q01DX010 (ip), vehicle: saline
# [11] = dose: 300.0 mg/kg/injection, schedule: Q01DX010 (ip), vehicle: saline
# [12] = dose: 450.0 mg/kg/injection, schedule: Q01DX010 (ip), vehicle: saline
# [13] = dose: 675.0 mg/kg/injection, schedule: Q01DX010 (ip), vehicle: saline
# [14] = dose: 250.0 mg/kg/injection, schedule: Q01DX010 (ip), vehicle: saline
# [15] = dose: 40.0 mg/kg/injection, schedule: Q01DX010 (ip), vehicle: saline
structure (smiles),measurement,setting,value
C[C@]12CC[C@@H]3c4ccc(O)cc4CC[C@H]3[C@@H]1CC(=O)[C@@H]2O,T/C,[1],94 % of control and 89 % of control
same,T/C,[2],92 % of control and 96 % of control
same,T/C,[3],78 % of control and 86 % of control
COc1ccc2[nH]c3c(C)c4ccncc4c(C)c3c2c1,T/C,"dose: 0.39 mg/kg/injection, schedule: Q01DX010 (ip), vehicle: saline",104 % of control
same,T/C,"dose: 0.78 mg/kg/injection, schedule: Q01DX010 (ip), vehicle: saline",111 % of control
same,T/C,"dose: 1.56 mg/kg/injection, schedule: Q01DX010 (ip), vehicle: saline",73 % of control
same,T/C,[4],61 % of control
same,T/C,[5],45 % of control
same,T/C,[6],40 % of control and 42 % of control
Cc1nc(N2CC2)nc(N2CC2)c1[N+](=O)[O-],T/C,"dose: 1.25 mg/kg/injection, schedule: Q01DX010 (ip), vehicle: saline",63 % of control and 82 % of control
same,T/C,"dose: 2.5 mg/kg/injection, schedule: Q01DX010 (ip), vehicle: saline",73 % of control and 84 % of control
CN(C)CCCN1c2ccccc2Sc2ccc(C(F)(F)F)cc21,T/C,[5],55 % of control
same,T/C,[6],19 % of control
Cc1cc2nc3c(=O)[nH]c(=O)nc-3n(CC(O)C(O)C(O)C(O)CO)c2cc1C (centres undefined),T/C,[7],86 % of control
same,T/C,[8],88 % of control
same,T/C,[9],58 % of control
Cc1ccc2[nH]c3nc4cc(C)c(C)cc4nc3c2c1,T/C,[7],93 % of control
same,T/C,[8],76 % of control
NCCCCC(N)C(=O)NCCCCCCCCCCNC(=O)C(N)CCCCN (centres undefined),T/C,[4],106 % of control
same,T/C,[5],99 % of control
same,T/C,[6],122 % of control
same,T/C,[7],107 % of control
OC(CBr)C(O)C(O)C(O)CBr (centres undefined),T/C,[6],62 % of control
same,T/C,[7],70 % of control and 84 % of control
same,T/C,[10],98 % of control
CC1(C)O[C@@H]2C[C@H]3[C@@H]4CCC5=CC(=O)C=C[C@]5(C)[C@@]4(F)[C@@H](O)C[C@]3(C)[C@]2(C(=O)CO)O1,T/C,"dose: 0.5 mg/kg/injection, schedule: Q01DX005 (sc), vehicle: steriod suspending solution",56 % of control
same,T/C,"dose: 1.0 mg/kg/injection, schedule: Q01DX005 (sc), vehicle: steriod suspending solution",59 % of control
same,T/C,"dose: 1.0 mg/kg/injection, schedule: Q01DX010 (sc), vehicle: steriod suspending solution",118 % of control
same,T/C,"dose: 1.0 mg/kg/injection, schedule: Q02DX010 (sc), vehicle: steriod suspending solution",101 % of control
same,T/C,"dose: 1.0 mg/kg/injection, schedule: Q03DX004 (sc), vehicle: steriod suspending solution",71 % of control
same,T/C,"dose: 2.0 mg/kg/injection, schedule: Q01DX005 (sc), vehicle: steriod suspending solution",33 % of control
same,T/C,"dose: 2.0 mg/kg/injection, schedule: Q01DX010 (sc), vehicle: steriod suspending solution",39 % of control
same,T/C,"dose: 2.0 mg/kg/injection, schedule: Q02DX010 (sc), vehicle: steriod suspending solution",80 % of control
same,T/C,"dose: 2.0 mg/kg/injection, schedule: Q03DX004 (sc), vehicle: steriod suspending solution",26 % of control
same,T/C,"dose: 3.75 mg/kg/injection, schedule: Q01DX010 (sc), vehicle: steriod suspending solution",1 % of control
same,T/C,"dose: 4.0 mg/kg/injection, schedule: Q01DX005 (sc), vehicle: steriod suspending solution",16 % of control
same,T/C,"dose: 4.0 mg/kg/injection, schedule: Q01DX010 (sc), vehicle: steriod suspending solution",23 % of control
same,T/C,"dose: 4.0 mg/kg/injection, schedule: Q02DX010 (sc), vehicle: steriod suspending solution",113 % of control
same,T/C,"dose: 4.0 mg/kg/injection, schedule: Q03DX004 (sc), vehicle: steriod suspending solution",7 % of control
COCCOC,T/C,[11],100 % of control
same,T/C,[12],62 % of control
same,T/C,[13],60 % of control
OCC1OC(n2cnc3c(Cl)ncnc32)C(O)C1O (centres undefined),T/C,[14],95 % of control and 103 % of control
O=C(Nc1ccc(NC2=NCCN2)cc1)c1ccc(C(=O)Nc2ccc(NC3=NCCN3)cc2)cc1,T/C,"dose: 2.0 mg/kg/injection, schedule: Q01DX010 (ip), vehicle: saline",78 % of control
same,T/C,"dose: 4.0 mg/kg/injection, schedule: Q01DX010 (ip), vehicle: saline",81 % of control
same,T/C,"dose: 8.0 mg/kg/injection, schedule: Q01DX010 (ip), vehicle: saline",36 % of control
O=C1C=CC2(CCC23C=CC(=O)O3)O1 (centres undefined),T/C,"dose: 13.0 mg/kg/injection, schedule: Q01DX011 (ip), vehicle: saline",74 % of control
same,T/C,"dose: 20.0 mg/kg/injection, schedule: Q01DX011 (ip), vehicle: saline",106 % of control
same,T/C,"dose: 45.0 mg/kg/injection, schedule: Q01DX011 (ip), vehicle: saline",108 % of control and 86 % of control
same,T/C,"dose: 65.0 mg/kg/injection, schedule: Q01DX011 (ip), vehicle: saline",103 % of control
same,T/C,"dose: 100.0 mg/kg/injection, schedule: Q01DX011 (ip), vehicle: saline",89 % of control
CN(C)c1ccc(/C=C/c2ccnc3ccccc23)cc1,T/C,"dose: 5.0 mg/kg/injection, schedule: Q01DX010 (ip), vehicle: saline",59 % of control
same,T/C,"dose: 20.0 mg/kg/injection, schedule: Q01DX010 (ip), vehicle: saline",39 % of control and 46 % of control
same,T/C,[15],30 % of control and 38 % of control
O=CN(O)CC(=O)O,T/C,"dose: 62.5 mg/kg/injection, schedule: Q01DX010 (ip), vehicle: saline",92 % of control and 67 % of control
same,T/C,[14],104 % of control and 108 % of control
C[C@]12CC[C@@H]3c4ccc(O)cc4CC[C@H]3[C@@H]1CC[C@@H]2O,T/C,"dose: 6.25 mg/kg/injection, schedule: Q01DX010 (sc), vehicle: steriod suspending solution",80 % of control and 90 % of control
same,T/C,[1],70 % of control and 86 % of control
same,T/C,[2],77 % of control and 81 % of control
same,T/C,[3],100 % of control and 82 % of control
CC(=O)O[C@H]1CC[C@H]2[C@@H]3CC[C@H]4CCCC[C@]4(C)[C@H]3CC[C@]12C,T/C,[1],104 % of control and 121 % of control
same,T/C,[2],103 % of control and 85 % of control
same,T/C,[3],103 % of control
CCCCCC(=O)O[C@]1(C(C)=O)CC[C@H]2[C@@H]3CCC4=CC(=O)CC[C@]4(C)[C@H]3CC[C@@]21C,T/C,"dose: 250.0 mg/kg/injection, schedule: Q01DX010 (sc), vehicle: steriod suspending solution",110 % of control
same,T/C,"dose: 375.0 mg/kg/injection, schedule: Q01DX010 (sc), vehicle: steriod suspending solution",106 % of control
same,T/C,"dose: 500.0 mg/kg/injection, schedule: Q01DX010 (sc), vehicle: steriod suspending solution",114 % of control
same,T/C,"dose: 750.0 mg/kg/injection, schedule: Q01DX010 (sc), vehicle: steriod suspending solution",109 % of control
NC(CCSCc1ccc(N(CCCl)CCCl)cc1)C(=O)O (centres undefined),T/C,"dose: 4.5 mg/kg/injection, schedule: Q01DX010 (ip), vehicle: saline",108 % of control
same,T/C,"dose: 9.0 mg/kg/injection, schedule: Q01DX010 (ip), vehicle: saline",86 % of control
same,T/C,"dose: 18.0 mg/kg/injection, schedule: Q01DX010 (ip), vehicle: saline",98 % of control
same,T/C,"dose: 36.0 mg/kg/injection, schedule: Q01DX010 (ip), vehicle: saline",93 % of control
CN(N=O)C(=O)NC(C=O)C(O)C(O)C(O)CO (centres undefined),T/C,"dose: 22.5 mg/kg/injection, schedule: Q01DX010 (ip), vehicle: saline",43 % of control
same,T/C,[15],97 % of control
same,T/C,"dose: 45.0 mg/kg/injection, schedule: Q01DX010 (ip), vehicle: saline",53 % of control
same,T/C,"dose: 60.0 mg/kg/injection, schedule: Q01DX010 (ip), vehicle: saline",64 % of control
same,T/C,"dose: 90.0 mg/kg/injection, schedule: Q01DX010 (ip), vehicle: saline",24 % of control and 29 % of control
CS(=O)(=O)OCCC(=O)N1CCN(C(=O)CCOS(C)(=O)=O)CC1,T/C,[5],77 % of control
same,T/C,[6],71 % of control
same,T/C,[7],7 % of control
same,T/C,[8],4 % of control
CN(C)/N=N/c1nc[nH]c1C(N)=O,T/C,[7],58 % of control
same,T/C,[8],47 % of control
same,T/C,[9],7 % of control
same,T/C,[10],3 % of control
CCN(CC)CCNc1ccc(C)c2sc3ccccc3c(=O)c12,T/C,[5],76 % of control
same,T/C,[6],31 % of control and 43 % of control
same,T/C,[7],10 % of control and 29 % of control
same,T/C,[8],10 % of control
C[C@]12C=CC(=O)C=C1CC[C@@H]1[C@@H]2CC[C@]2(C)OC(=O)CC[C@@H]12,T/C,[1],107 % of control and 112 % of control
same,T/C,[2],101 % of control and 77 % of control
same,T/C,"dose: 100.0 mg/kg/injection, schedule: Q01DX010 (sc), vehicle: steriod suspending solution",111 % of control and 115 % of control
CN(C)CC(=O)c1ccc(O)c(O)c1,T/C,[9],122 % of control
same,T/C,[11],105 % of control
same,T/C,[12],72 % of control
same,T/C,[13],80 % of control
CC(=O)OC(C)(C)/C=C/C(=O)[C@](C)(O)[C@H]1[C@H](O)C[C@@]2(C)[C@@H]3CC=C4[C@@H](CC[C@H](O)C4(C)C)[C@]3(CO)C(=O)C[C@]12C,T/C,"dose: 0.16 mg/kg/injection, schedule: Q01DX010 (ip), vehicle: saline",109 % of control
same,T/C,"dose: 0.25 mg/kg/injection, schedule: Q01DX010 (ip), vehicle: saline",89 % of control
same,T/C,"dose: 0.38 mg/kg/injection, schedule: Q01DX010 (ip), vehicle: saline",102 % of control
same,T/C,"dose: 0.57 mg/kg/injection, schedule: Q01DX010 (ip), vehicle: saline",109 % of control
